From patent US6737383B1, “Herbicidal oxadiazolidines” (priority 1999, dated 2004)

Tests used:
bedstraw = assay: Test B pre/postemergence bedstraw; assay type: in vivo, Galium aparine
Procedure, shortened: (§1)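 Response is a visual 0-to-10 score relative to untreated plants, where 0 means no effect and 10 means complete control, taken twelve to sixteen days after application. Treatments went onto soil at planting and onto foliage of 1- to 4-leaf plants, using a surfactant-containing non-phytotoxic solvent.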

blackgrass = assay: Test B pre/postemergence blackgrass; assay type: in vivo, Alopecurus myosuroides
Procedure, shortened: as §1

surinam grass = assay: Test B pre/postemergence surinam grass; assay type: in vivo, Brachiaria decumbens
Procedure, shortened: as §1

corn = assay: Test B pre/postemergence corn; assay type: in vivo, Zea mays
Procedure, shortened: as §1

crabgrass = assay: Test B pre/postemergence crabgrass; assay type: in vivo, Digitaria sanguinalis
Procedure, shortened: as §1

giant foxtail = assay: Test B pre/postemergence giant foxtail; assay type: in vivo, Setaria faberii
Procedure, shortened: as §1

morningglory = assay: Test B pre/postemergence morningglory; assay type: in vivo, Ipomoea hederacea
Procedure, shortened: as §1

pigweed = assay: Test B pre/postemergence pigweed; assay type: in vivo, Amaranthus retroflexus
Procedure, shortened: as §1

rape = assay: Test B pre/postemergence rape; assay type: in vivo, Brassica napus
Procedure, shortened: as §1

soybean = assay: Test B pre/postemergence soybean; assay type: in vivo, Glycine max
Procedure, shortened: as §1

velvetleaf = assay: Test B pre/postemergence velvetleaf; assay type: in vivo, Abutilon theophrasti; conditions: for Plant response rating, Velvetleaf: Rate 250 g/ha
Procedure, shortened: as §1

wheat = assay: Test B pre/postemergence wheat; assay type: in vivo, Triticum aestivum; conditions: for Plant response rating, Wheat: Rate 250 g/ha
Procedure, shortened: as §1

wild oat = assay: Test B pre/postemergence wild oat; assay type: in vivo, Avena fatua; conditions: for Plant response rating, Wild oats: Rate 250 g/ha
Procedure, shortened: as §1

purple nutsedge = assay: Test B pre/postemergence purple nutsedge; assay type: in vivo, Cyperus rotundus
Procedure, shortened: as §1

rice = assay: Test B flood test rice; assay type: in vivo, Oryza sativa
Procedure, shortened: (§2)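 Plants were grown to the 2-leaf stage before treatment with test chemical, then held in a greenhouse for twelve to sixteen days. Injury was visually rated against untreated controls on a 0–10 scale, where 0 is no effect and 10 is complete control.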

duck salad = assay: Test B flood test duck salad; assay type: in vivo, Heteranthera limosa
Procedure, shortened: as §2

[1] = Postemergence, Rate 62 g/ha, scale 0 to 10, 0 is no effect, 10 is complete control
[2] = Postemergence, Rate 250 g/ha, scale 0 to 10, 0 no effect, 10 complete control
[3] = Preemergence, Rate 62 g/ha, scale 0 to 10 (0 no effect, 10 complete control)
[4] = Preemergence, Rate 125 g/ha, scale 0 to 10 (0 no effect, 10 complete control)
[5] = Preemergence, Rate 250 g/ha, scale of 0 to 10 where 0 is no effect and 10 is complete control
[6] = Preemergence, Rate 500 g/ha, scale 0 to 10 (0 no effect, 10 complete control)
[7] = Rate 125 g/ha, Postemergence, scale 0 to 10, 0 no effect, 10 complete control
[8] = Postemergence, Rate 125 g/ha, scale of 0 to 10 where 0 is no effect and 10 is complete control
[9] = Rate 62 g/ha, Postemergence, scale of 0 to 10 where 0 is no effect and 10 is complete control
[10] = Rate 500 g/ha, Postemergence, scale 0 to 10, 0 no effect, 10 complete control
[11] = Rate 250 g/ha, Postemergence, scale 0 to 10, 0 is no effect, 10 is complete control
[12] = Preemergence, Rate 125 g/ha, 0 is no effect, 10 is complete control
[13] = Preemergence, scale of 0 to 10 where 0 is no effect and 10 is complete control
[14] = Postemergence, scale 0 to 10, 0 is no effect, 10 is complete control
[15] = Postemergence (flood test species), Rate 125 g/ha, scale of 0 to 10 where 0 is no effect and 10 is complete control
[16] = Rate 62 g/ha, Postemergence section, flood test species, scale of 0 to 10 where 0 is no effect and 10 is complete control
[17] = Rate 500 g/ha, listed under Postemergence (flood test species), scale 0 to 10, 0 no effect, 10 complete control

In the case of `CC(C)N(C(=O)n1oc(=O)n(C2CCCCC2)c1=O)c1ccccc1` [Compound 112], the “Bedstraw plant response rating” value (bedstraw; [1]) is reported as 0, the “Bedstraw plant response rating” value (bedstraw; [2]) is reported as 7 and the “Bedstraw plant response rating” value (bedstraw; [3]) is reported as 0. For the same molecule, the “Plant response rating, Bedstraw” value (bedstraw; [4]) was 0, the “Plant response rating, Bedstraw” value (bedstraw; [5]) was 0 and the “Bedstraw plant response rating” value (bedstraw; [6]) was 0. The “Bedstraw plant response rating” value (bedstraw; [7]) was 0, the “Blackgrass plant response rating” value (blackgrass; [8]) was 4 and the “Blackgrass plant response rating” value (blackgrass; [2]) was 5. The “Blackgrass plant response rating” value (blackgrass; [3]) was 0, the “Plant response rating, Blackgrass” value (blackgrass; [4]) was 0 and the “Plant response rating, Blackgrass” value (blackgrass; [5]) was 2. For the same molecule, the “Blackgrass plant response rating” value (blackgrass; [6]) was 5, the “Blackgrass plant response rating” value (blackgrass; [9]) was 0 and the “Blackgrass plant response rating” value (blackgrass; [10]) was 7. The “B. signalgrass plant response rating” value (surinam grass; [1]) was 0, the “B. signalgrass plant response rating” value (surinam grass; [2]) was 0 and the “B. signalgrass plant response rating” value (surinam grass; [3]) was 0. For the same molecule, the “Plant response rating, B. signalgrass” value (surinam grass; [4]) was 0, the “Plant response rating, B. signalgrass” value (surinam grass; [5]) was 3 and the “B. signalgrass plant response rating” value (surinam grass; [6]) was 5. The “B. signalgrass plant response rating” value (surinam grass; [7]) was 0, the “B. signalgrass plant response rating” value (surinam grass; Rate 500 g/ha, Postemergence, scale of 0 to 10 where 0 is no effect and 10 is complete control) was 4 and the “Corn plant response rating” value (corn; [8]) was 0. For the same molecule, the “Corn plant response rating” value (corn; [2]) was 0, the “Corn plant response rating” value (corn; [3]) was 0 and the “Plant response rating, Corn” value (corn; [4]) was 0. The “Plant response rating, Corn” value (corn; [5]) was 0, the “Corn plant response rating” value (corn; [6]) was 2 and the “Corn plant response rating” value (corn; [9]) was 0. For the same molecule, the “Corn plant response rating” value (corn; [10]) was 0, the “Crabgrass plant response rating” value (crabgrass; [8]) was 4 and the “Crabgrass plant response rating” value (crabgrass; [2]) was 4. For the same molecule, the “Crabgrass plant response rating” value (crabgrass; [3]) was 5, the “Plant response rating, Crabgrass” value (crabgrass; [4]) was 6 and the “Plant response rating, Crabgrass” value (crabgrass; [5]) was 10. For the same molecule, the “Crabgrass plant response rating” value (crabgrass; [6]) was 10, the “Crabgrass plant response rating” value (crabgrass; [9]) was 0 and the “Crabgrass plant response rating” value (crabgrass; [10]) was 9. For the same molecule, the “Giant foxtail plant response rating” value (giant foxtail; [8]) was 7, the “Giant foxtail plant response rating” value (giant foxtail; [2]) was 7 and the “Giant foxtail plant response rating” value (giant foxtail; [3]) was 8. The “Plant response rating, Giant foxtail” value (giant foxtail; [4]) was 10, the “Plant response rating, Giant foxtail” value (giant foxtail; [5]) was 10 and the “Giant foxtail plant response rating” value (giant foxtail; [6]) was 10. The “Giant foxtail plant response rating” value (giant foxtail; [9]) was 2, the “Giant foxtail plant response rating” value (giant foxtail; [10]) was 8 and the “Morningglory plant response rating” value (morningglory; [8]) was 10. For the same molecule, the “Morningglory plant response rating” value (morningglory; [2]) was 10, the “Morningglory plant response rating” value (morningglory; [3]) was 0 and the “Plant response rating, Morningglory” value (morningglory; [4]) was 2. The “Plant response rating, Morningglory” value (morningglory; [5]) was 2, the “Morningglory plant response rating” value (morningglory; [6]) was 2 and the “Morningglory plant response rating” value (morningglory; [9]) was 8. For the same molecule, the “Morningglory plant response rating” value (morningglory; [10]) was 10, the “Redroot pigweed plant response rating” value (pigweed; [8]) was 3 and the “Redroot pigweed plant response rating” value (pigweed; [3]) was 0. The “Plant response rating, Redroot pigweed” value (pigweed; [4]) was 2, the “Plant response rating, Redroot pigweed” value (pigweed; [5]) was 7 and the “Redroot pigweed plant response rating” value (pigweed; [6]) was 9. The “Redroot pigweed plant response rating” value (pigweed; [9]) was 2, the “Plant response rating, Redroot pigweed” value (pigweed; [11]) was 5 and the “Redroot pigweed plant response rating” value (pigweed; [10]) was 5. The “Rape plant response rating” value (rape; [8]) was 2, the “Rape plant response rating” value (rape; [2]) was 3 and the “Rape plant response rating” value (rape; [3]) was 0. The “Plant response rating, Rape” value (rape; [4]) was 0, the “Plant response rating, Rape” value (rape; [5]) was 0 and the “Rape plant response rating” value (rape; [6]) was 5. For the same molecule, the “Rape plant response rating” value (rape; [9]) was 2, the “Rape plant response rating” value (rape; [10]) was 4 and the “Soybean plant response rating” value (soybean; [8]) was 4. The “Soybean plant response rating” value (soybean; [3]) was 0, the “Plant response rating, Soybean” value (soybean; [4]) was 0 and the “Plant response rating, Soybean” value (soybean; [5]) was 0. The “Soybean plant response rating” value (soybean; [6]) was 4, the “Soybean plant response rating” value (soybean; [9]) was 4 and the “Plant response rating, Soybean” value (soybean; [11]) was 4. For the same molecule, the “Soybean plant response rating” value (soybean; [10]) was 7, the “Velvetleaf plant response rating” value (velvetleaf; [8]) was 0 and the “Velvetleaf plant response rating” value (velvetleaf; [3]) was 0. For the same molecule, the “Velvetleaf plant response rating (0 to 10 scale)” value (velvetleaf; [12]) was 2, the “Plant response rating, Velvetleaf” value (velvetleaf; [13]) was 4 and the “Velvetleaf plant response rating” value (velvetleaf; [6]) was 5. For the same molecule, the “Velvetleaf plant response rating” value (velvetleaf; [9]) was 0, the “Plant response rating, Velvetleaf” value (velvetleaf; [14]) was 1 and the “Velvetleaf plant response rating” value (velvetleaf; [10]) was 1. For the same molecule, the “Wheat plant response rating” value (wheat; [8]) was 0, the “Wheat plant response rating” value (wheat; [3]) was 0 and the “Wheat plant response rating (0 to 10 scale)” value (wheat; [12]) was 0. The “Plant response rating, Wheat” value (wheat; [13]) was 0, the “Wheat plant response rating” value (wheat; [6]) was 0 and the “Wheat plant response rating” value (wheat; [9]) was 0. The “Plant response rating, Wheat” value (wheat; [14]) was 0, the “Wheat plant response rating” value (wheat; [10]) was 0 and the “Wild oats plant response rating” value (wild oat; [8]) was 0. For the same molecule, the “Wild oats plant response rating” value (wild oat; [3]) was 0, the “Wild oats plant response rating (0 to 10 scale)” value (wild oat; [12]) was 0 and the “Plant response rating, Wild oats” value (wild oat; [13]) was 2. For the same molecule, the “Wild oats plant response rating” value (wild oat; [6]) was 6, the “Wild oats plant response rating” value (wild oat; [9]) was 0 and the “Plant response rating, Wild oats” value (wild oat; [14]) was 0. For the same molecule, the “Wild oats plant response rating” value (wild oat; [10]) was 1, the “Nutsedge plant response rating” value (purple nutsedge; [8]) was 0 and the “Nutsedge plant response rating” value (purple nutsedge; [2]) was 0. For the same molecule, the “Nutsedge plant response rating” value (purple nutsedge; [3]) was 0, the “Plant response rating, Nutsedge” value (purple nutsedge; [4]) was 0 and the “Plant response rating, Nutsedge” value (purple nutsedge; [5]) was 0. For the same molecule, the “Nutsedge plant response rating” value (purple nutsedge; [6]) was 0, the “Nutsedge plant response rating” value (purple nutsedge; [9]) was 0 and the “Nutsedge plant response rating” value (purple nutsedge; [10]) was 0. The “Rice plant response rating” value (rice; [15]) was 0, the “Rice plant response rating” value (rice; [16]) was 0 and the “Plant response rating, Rice” value (rice; Rate 250 g/ha, Postemergence (flood test), scale 0 to 10, 0 is no effect, 10 is complete control) was 0. The “Rice plant response rating” value (rice; [17]) was 0, the “Ducksalad plant response rating” value (duck salad; [15]) was 0 and the “Ducksalad plant response rating” value (duck salad; [16]) was 0. For the same molecule, the “Ducksalad plant response rating” value (duck salad; [17]) was 0 and the “Ducksalad plant response rating” value (duck salad; flood test, listed under Postemergence, Rate 250 g/ha, scale 0 to 10, 0 no effect, 10 complete control) was 0.
